Test results as given in publication PMC9114115, “Property space mapping of Pseudomonas aeruginosa permeability to small molecules” (Scientific Reports, 2022).
Several values for one entry are separate records, joined by “and”; a condition that tells them apart may be missing. Identical values can stand only once.
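For Concentration slopes of accumulation, PAO1-Pore 1 min in this document: slope of accumulation versus external concentration fitted as a line through zero.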
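For Concentration slopes of accumulation, PAO1-Pore 40 min in this document: slope of accumulation versus external concentration fitted as a line through zero.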

The compounds below were run on P. aeruginosa PAO1-Pore cells (assay: LC–MS quantification of intracellular accumulation, PAO1-Pore). Conditions: 1 min incubation, 10-80 µM.
Procedure: (§1) PAO1-Pore and PΔ3-Pore were grown at 37 °C overnight with shaking at 225 rpm in 50 mM MOPS-M9 (pH 7.2) Minimal Medium supplemented with 1% glycerol[42],[43].
(§2) The next day, cells were sub-cultured (1.5:100) in fresh MOPS-M9 medium and grown for 16 h. The cultures were then split into two flasks and one of them was induced with 0.1 mM IPTG. Cells incubated for additional 4 h until OD600 reached ~ 1.0 and harvested by centrifugation at 3,275xg for 20 min in RT, washed and concentrated 10X in the spent medium. Assays were performed in 96-well plates in a final volume of […]. Cells were incubated with 10, 20, 40, 80 µM of compounds and after 1- and 40-min incubation at RT, 100 µL cell aliquots were collected by vacuum filtration onto 1.0 µm Glass Fiber Type B filters. For no-cell controls, compounds were diluted to 10, 20, 40, 80 µM final concentration in the same medium, incubated for 1 min and 40 min and filtered onto the same plates. The cell loaded and cell-free filters were dried, removed from plates and placed into 100% methanol at -80 °C for at least 10 min. Filter-bound material was extracted by water bath sonication for 1 min. Cell and filter debris were separated by ultracentrifugation at 45,000 rpm (TLA55 rotor, Beckman) for 8 min at 16 °C and the pellet re-extracted with 80% methanol in water by sonication for 15 min followed by ultracentrifugation at the same conditions. Supernatants from two extractions were combined. For the compound quantification, 5 µL of solution was analyzed in triplicate.
(§3) Calibration curves for MS analyses of compounds were generated in the same experiment by mixing compound at increasing concentrations with the sonicated PAO1 cell extracts. […] Azithromycin was used as a positive control in all experiments.
(§4) Samples were processed in positive ion mode. An Eclipse plus C18 Rapid Resolution HD column (1.8 μm, 2.1 × 50 mm, Agilent, USA) was used for separation. The flow rate was 0.6 mL/min using the following gradient: 0 to 1 min (0- 20% ACN), 1 to 4 min (20- 80% ACN), 4 to 5.1 min (80–100% ACN), 5.1 to 6.30 (100% ACN). Solvents contained 0.1% formic acid to promote positive ion formation in the electrospray. […] Data were analyzed using Agilent Masshunter workstation quantitative analysis v. B.10 software.
For `CS(=O)(=O)O.C[C@H]1COc2c(C3(N)CC3)c(F)cc3c(=O)c(C(=O)O)cn1c23` [OU-0000627, PAZUFLOXACIN MESYLATE], the “Concentration slopes of accumulation, PAO1-Pore_1 min” value was 5.79. `Cc1oc(=O)oc1CN1CCN(c2cc3c(cc2F)c(=O)c(C(=O)O)c2n3C(C)S2)CC1` (stereo not drawn) [OU-0000631, PRULIFLOXACIN] was tested, and the “Concentration slopes of accumulation, PAO1-Pore_1 min” value was 7.49.

Same assay, conditions: 40 min incubation, 10-80 µM
`CS(=O)(=O)O.C[C@H]1COc2c(C3(N)CC3)c(F)cc3c(=O)c(C(=O)O)cn1c23` [OU-0000627, PAZUFLOXACIN MESYLATE] was tested, and the “Concentration slopes of accumulation, PAO1-Pore_40 min” value was 7.45. `Cc1oc(=O)oc1CN1CCN(c2cc3c(cc2F)c(=O)c(C(=O)O)c2n3C(C)S2)CC1` (stereo not drawn) [OU-0000631, PRULIFLOXACIN] was tested, and the “Concentration slopes of accumulation, PAO1-Pore_40 min” value was 9.31.

What follows are compounds tested on P. aeruginosa PΔ3 cells (assay: not given). Conditions: 1 min incubation, 10-80 µM.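 Also: slope of accumulation versus external concentration fitted as a line through zero.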
Procedure: as §1, §2, §3, §4
For `CS(=O)(=O)O.C[C@H]1COc2c(C3(N)CC3)c(F)cc3c(=O)c(C(=O)O)cn1c23` [OU-0000627, PAZUFLOXACIN MESYLATE], the “Concentration slopes of accumulation, PΔ3_1 min” value was 3.81. For `Cc1oc(=O)oc1CN1CCN(c2cc3c(cc2F)c(=O)c(C(=O)O)c2n3C(C)S2)CC1` (stereo not drawn) [OU-0000631, PRULIFLOXACIN], the “Concentration slopes of accumulation, PΔ3_1 min” value was 7.35.

Same assay, conditions: 40 min incubation, 10-80 µM
`CS(=O)(=O)O.C[C@H]1COc2c(C3(N)CC3)c(F)cc3c(=O)c(C(=O)O)cn1c23` [OU-0000627, PAZUFLOXACIN MESYLATE] was tested, and the “Concentration slopes of accumulation, PΔ3_40 min” value was 5.01. In the case of `Cc1oc(=O)oc1CN1CCN(c2cc3c(cc2F)c(=O)c(C(=O)O)c2n3C(C)S2)CC1` (stereo not drawn) [OU-0000631, PRULIFLOXACIN], the “Concentration slopes of accumulation, PΔ3_40 min” value is reported as 8.36.

What follows are compounds tested on P. aeruginosa PAO1 cells (assay: LC–MS quantification of intracellular accumulation, PAO1). Conditions: 1 min incubation, 10-80 µM.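 Also: slope of accumulation versus external concentration fitted as a line through zero.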
Procedure: as §1, §2, §3, §4
With `Cc1oc(=O)oc1CN1CCN(c2cc3c(cc2F)c(=O)c(C(=O)O)c2n3C(C)S2)CC1` (stereo not drawn) [OU-0000631, PRULIFLOXACIN] the “Concentration slopes of accumulation, PAO1_1 min” value was 10.64.

Same assay, conditions: 40 min incubation, 10-80 µM
For `Cc1oc(=O)oc1CN1CCN(c2cc3c(cc2F)c(=O)c(C(=O)O)c2n3C(C)S2)CC1` (stereo not drawn) [OU-0000631, PRULIFLOXACIN], the “Concentration slopes of accumulation, PAO1_40 min” value was 11.45.

What follows are compounds tested on P. aeruginosa (assay: not given). Conditions: sheet "Good" permeators; all listed compounds are good permeators.
Procedure: The measured levels of compound accumulation were analyzed using machine learning to determine which features of the compounds are most important for enabling their cellular accumulation and to determine their optimal values. […] To accentuate the permeability aspect, the accumulation slopes in efflux-deficient and hyperporinated strains were normalized to those in the parental PAO1 strain.
To help visualize the data, we performed a principal component (PC) decomposition of the data.
For `CS(=O)(=O)O.C[C@H]1COc2c(C3(N)CC3)c(F)cc3c(=O)c(C(=O)O)cn1c23` [OU-0000627, PAZUFLOXACIN MESYLATE], the “Cluster of the identified "good" permeators” value was 1. `Cc1oc(=O)oc1CN1CCN(c2cc3c(cc2F)c(=O)c(C(=O)O)c2n3C(C)S2)CC1` (stereo not drawn) [OU-0000631, PRULIFLOXACIN] was tested, and the “Cluster of the identified "good" permeators” value was 3.

Each compound was assayed on P. aeruginosa PAO1-Pore (assay: MIC by two-fold dilution, hyperporinated PAO1-Pore). Conditions: PAO1-Pore, LB broth, Table S2.
Assay type: cell-based, Pseudomonas aeruginosa
Procedure: (§5) In all experiments, P. aeruginosa PAO1-Pore (PAO1 attTn7::PLAC-fhuA) and PΔ3-Pore (ΔmexAB ΔmexCD ΔmexXY attTn7::PLAC-fhuA) strains were used[29]. Strains were routinely grown in Luria–Bertani (LB) or MOPS-M9 medium at 37 °C with aeration. MICs shown in Tables 1 and 2 were determined by a two-fold dilution method in LB broth and MOPS-M9 medium, respectively, following the previously described protocol.
For `CS(=O)(=O)O.C[C@H]1COc2c(C3(N)CC3)c(F)cc3c(=O)c(C(=O)O)cn1c23` [OU-0000627, PAZUFLOXACIN MESYLATE], the MICs was 0.25. With `Cc1oc(=O)oc1CN1CCN(c2cc3c(cc2F)c(=O)c(C(=O)O)c2n3C(C)S2)CC1` (stereo not drawn) [OU-0000631, PRULIFLOXACIN] the MICs was 0.0625.

Same assay, conditions: PAO1-Pore, MOPS-M9 medium
With `CS(=O)(=O)O.C[C@H]1COc2c(C3(N)CC3)c(F)cc3c(=O)c(C(=O)O)cn1c23` [OU-0000627, PAZUFLOXACIN MESYLATE] the MICs was 0.03 mg/L.

Same assay, conditions: PAO1-Pore, MOPS-M9 medium; listed as Pazufloxacin mesylate
`CS(=O)(=O)O.C[C@H]1COc2c(C3(N)CC3)c(F)cc3c(=O)c(C(=O)O)cn1c23` [OU-0000627, PAZUFLOXACIN MESYLATE] showed an MICs of 0.0625 µM.

Same assay, conditions: Pseudomonas aeruginosa, PAO1, read-out: MICs
In the case of `Cc1oc(=O)oc1CN1CCN(c2cc3c(cc2F)c(=O)c(C(=O)O)c2n3C(C)S2)CC1` (stereo not drawn) [OU-0000631, PRULIFLOXACIN], the MIC is reported as 0.016 µM and 0.01 µg/mL.

The compounds below were run on P. aeruginosa PΔ3 (assay: microbe, parasite or virus in culture). Conditions: Pseudomonas aeruginosa, read-out: MICs.
Assay type: cell-based, Pseudomonas aeruginosa
Procedure: as §5
With `Cc1oc(=O)oc1CN1CCN(c2cc3c(cc2F)c(=O)c(C(=O)O)c2n3C(C)S2)CC1` (stereo not drawn) [OU-0000631, PRULIFLOXACIN] the MIC was 0.125 µM and 0.06 µg/mL.

Same assay, conditions: P∆3, MOPS-M9 medium
For `CS(=O)(=O)O.C[C@H]1COc2c(C3(N)CC3)c(F)cc3c(=O)c(C(=O)O)cn1c23` [OU-0000627, PAZUFLOXACIN MESYLATE], the MICs was 0.05 mg/L.

Same assay, conditions: P∆3, MOPS-M9 medium; listed as Pazufloxacin mesylate
Work on `CS(=O)(=O)O.C[C@H]1COc2c(C3(N)CC3)c(F)cc3c(=O)c(C(=O)O)cn1c23` [OU-0000627, PAZUFLOXACIN MESYLATE] yielded an MICs of 0.125 µM.

Each compound was assayed on P. aeruginosa PΔ3-Pore (assay: MIC by two-fold dilution, barrierless PΔ3-Pore). Conditions: Pseudomonas aeruginosa, read-out: MICs, P∆3-Pore, MOPS-M9 medium.
Assay type: cell-based, Pseudomonas aeruginosa
Procedure: as §5
In the case of `Cc1oc(=O)oc1CN1CCN(c2cc3c(cc2F)c(=O)c(C(=O)O)c2n3C(C)S2)CC1` (stereo not drawn) [OU-0000631, PRULIFLOXACIN], the MIC is reported as 0.004 µM and 0.002 µg/mL.

Same assay, conditions: P∆3-Pore, LB broth, Table S2
With `CS(=O)(=O)O.C[C@H]1COc2c(C3(N)CC3)c(F)cc3c(=O)c(C(=O)O)cn1c23` [OU-0000627, PAZUFLOXACIN MESYLATE] the MICs was 0.0156. For `Cc1oc(=O)oc1CN1CCN(c2cc3c(cc2F)c(=O)c(C(=O)O)c2n3C(C)S2)CC1` (stereo not drawn) [OU-0000631, PRULIFLOXACIN], the MICs was 0.0039.

Same assay, conditions: P∆3-Pore, MOPS-M9 medium
In the case of `CS(=O)(=O)O.C[C@H]1COc2c(C3(N)CC3)c(F)cc3c(=O)c(C(=O)O)cn1c23` [OU-0000627, PAZUFLOXACIN MESYLATE], the MICs is reported as 0.031 μM and 0.01 mg/L.

Each compound was assayed on P. aeruginosa PΔ3-Pore cells (assay: LC–MS quantification of intracellular accumulation, PΔ3-Pore). Conditions: 1 min incubation, 10-80 µM.
Procedure: as §1, §2, §3, §4
For `CS(=O)(=O)O.C[C@H]1COc2c(C3(N)CC3)c(F)cc3c(=O)c(C(=O)O)cn1c23` [OU-0000627, PAZUFLOXACIN MESYLATE], the “Concentration slopes of accumulation, PΔ3-Pore_1 min” value was 5.45. For `Cc1oc(=O)oc1CN1CCN(c2cc3c(cc2F)c(=O)c(C(=O)O)c2n3C(C)S2)CC1` (stereo not drawn) [OU-0000631, PRULIFLOXACIN], the “Concentration slopes of accumulation, PΔ3-Pore_1 min” value was 5.06.

Same assay, conditions: 40 min incubation, 10-80 µM
With `CS(=O)(=O)O.C[C@H]1COc2c(C3(N)CC3)c(F)cc3c(=O)c(C(=O)O)cn1c23` [OU-0000627, PAZUFLOXACIN MESYLATE] the “Concentration slopes of accumulation, PΔ3-Pore_40min” value was 5.72. `Cc1oc(=O)oc1CN1CCN(c2cc3c(cc2F)c(=O)c(C(=O)O)c2n3C(C)S2)CC1` (stereo not drawn) [OU-0000631, PRULIFLOXACIN] was tested, and the “Concentration slopes of accumulation, PΔ3-Pore_40min” value was 5.20.

Each compound was assayed on P. aeruginosa PAO1 (assay: MIC by two-fold dilution, wild type PAO1). Conditions: PAO1, MOPS-M9 medium; read-out: MICs.
Assay type: cell-based, Pseudomonas aeruginosa
Procedure: as §5
`CS(=O)(=O)O.C[C@H]1COc2c(C3(N)CC3)c(F)cc3c(=O)c(C(=O)O)cn1c23` [OU-0000627, PAZUFLOXACIN MESYLATE] showed an MIC of 0.5 µM.

Same assay, conditions: Pseudomonas aeruginosa; PAO1, MOPS-M9 medium; read-out: MICs
With `Cc1oc(=O)oc1CN1CCN(c2cc3c(cc2F)c(=O)c(C(=O)O)c2n3C(C)S2)CC1` (stereo not drawn) [OU-0000631, PRULIFLOXACIN] the MIC was 0.5 µM and 0.23 µg/mL.
